Assay results: PubChem BioAssay (NCI)
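Dose response: 5 concentrations. Exposure: 48 h. Format: 96-well plates. Endpoint: linear interpolation; highest concentration if not reached. At the TGI there is no net growth.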

What was measured:
Assay in all cases: NCI tumour cell line growth inhibition, 48 h
[1] = tested on: 786-0 renal
[2] = tested on: A549 NSCLC
[3] = tested on: ACHN renal
[4] = tested on: CAKI-1 renal
[5] = tested on: CCRF-CEM leukemia
[6] = tested on: COLO 205 colon
[7] = tested on: DLD-1 colon
[8] = tested on: DMS 114 small cell lung
[9] = tested on: DMS 273 small cell lung
[10] = tested on: HCC-2998 colon
[11] = tested on: HCT-116 colon
[12] = tested on: HOP-18 NSCLC
[13] = tested on: HOP-62 NSCLC
[14] = tested on: HOP-92 NSCLC
[15] = tested on: HT29 colon
[16] = tested on: IGROV1 ovarian
[17] = tested on: K-562 leukemia
[18] = tested on: KM12 colon
[19] = tested on: LOX IMVI melanoma
[20] = tested on: LXFL 529 NSCLC
[21] = tested on: M14 melanoma
[22] = tested on: M19-MEL melanoma
[23] = tested on: MALME-3M melanoma
[24] = tested on: MOLT-4 leukemia
[25] = tested on: NCI-H23 lung
[26] = tested on: NCI-H460 lung
[27] = tested on: NCI-H522 lung
[28] = tested on: OVCAR-3 ovarian
[29] = tested on: OVCAR-4 ovarian
[30] = tested on: OVCAR-5 ovarian
[31] = tested on: OVCAR-8 ovarian
[32] = tested on: RXF 393 renal
[33] = tested on: RXF-631 renal
[34] = tested on: SF-268 CNS
[35] = tested on: SF-295 CNS
[36] = tested on: SK-MEL-28 melanoma
[37] = tested on: SK-MEL-5 melanoma
[38] = tested on: SN12C renal
[39] = tested on: SNB-19 CNS
[40] = tested on: SNB-75 CNS
[41] = tested on: SNB-78 CNS
[42] = tested on: SR leukemia
[43] = tested on: SW-620 colon
[44] = tested on: TK-10 renal
[45] = tested on: U251 CNS
[46] = tested on: UACC-257 melanoma
[47] = tested on: UACC-62 melanoma
[48] = tested on: UO-31 renal
[49] = tested on: XF 498 CNS
[50] = tested on: A498 renal
[51] = tested on: EKVX NSCLC
[52] = tested on: HCT-15 colon
[53] = tested on: HL-60(TB) leukemia
[54] = tested on: KM20L2 colon
[55] = tested on: NCI-H226 lung
[56] = tested on: SF-539 CNS
[57] = tested on: SK-MEL-2 melanoma
[58] = tested on: SK-OV-3 ovarian
[59] = tested on: RPMI-8226 leukemia

For `O=C1C=CC(=O)c2nc3c(cc21)CCC3`, the TGI [1] was 33.4 µM, the TGI [2] was > 100 µM and the TGI [3] was 33.1 µM. For the same molecule, the TGI [4] was 31.4 µM, the TGI [5] was 25.6 µM and the TGI [6] was 27.7 µM. For the same molecule, the TGI [7] was 36 µM, the TGI [8] was 42.5 µM and the TGI [9] was 47.4 µM. For the same molecule, the TGI [10] was > 100 µM, the TGI [11] was 28.8 µM and the TGI [12] was 39.8 µM. For the same molecule, the TGI [13] was > 100 µM, the TGI [14] was 34.1 µM and the TGI [15] was > 100 µM. For the same molecule, the TGI [16] was 34 µM, the TGI [17] was 39.3 µM and the TGI [18] was > 100 µM. For the same molecule, the TGI [19] was 29.9 µM, the TGI [20] was 29 µM and the TGI [21] was 31 µM. It also gave a TGI [22] of 31.2 µM, a TGI [23] of 31.4 µM and a TGI [24] of 33.7 µM. The TGI [25] was 64.6 µM, the TGI [26] was > 100 µM and the TGI [27] was 25.4 µM. For the same molecule, the TGI [28] was 32 µM, the TGI [29] was 29.7 µM and the TGI [30] was > 100 µM. The TGI [31] was 28.8 µM, the TGI [32] was 34.2 µM and the TGI [33] was > 100 µM. The TGI [34] was 37.3 µM, the TGI [35] was > 100 µM and the TGI [36] was 40.4 µM. The TGI [37] was 45.9 µM, the TGI [38] was 40.3 µM and the TGI [39] was > 100 µM. For the same molecule, the TGI [40] was > 100 µM, the TGI [41] was 42 µM and the TGI [42] was 27 µM. For the same molecule, the TGI [43] was 31.1 µM, the TGI [44] was 32.7 µM and the TGI [45] was > 100 µM. For the same molecule, the TGI [46] was 33.9 µM, the TGI [47] was 33 µM and the TGI [48] was > 100 µM. The TGI [49] was 32.9 µM.
With `CC(C)(C)c1cc2ccc(C(N)=O)cc2c(=O)[nH]1` the TGI [1] was > 100 µM, the TGI [50] was > 100 µM and the TGI [2] was > 100 µM. The TGI [3] was > 100 µM, the TGI [4] was > 100 µM and the TGI [5] was > 100 µM. For the same molecule, the TGI [6] was > 100 µM, the TGI [7] was > 100 µM and the TGI [8] was > 100 µM. For the same molecule, the TGI [9] was > 100 µM, the TGI [51] was > 100 µM and the TGI [10] was > 100 µM. For the same molecule, the TGI [11] was > 100 µM, the TGI [52] was > 100 µM and the TGI [53] was > 100 µM. The TGI [12] was > 100 µM, the TGI [13] was > 100 µM and the TGI [14] was > 100 µM. The TGI [15] was > 100 µM, the TGI [16] was > 100 µM and the TGI [17] was > 100 µM. For the same molecule, the TGI [18] was > 100 µM, the TGI [54] was > 100 µM and the TGI [19] was > 100 µM. The TGI [20] was > 100 µM, the TGI [21] was > 100 µM and the TGI [22] was > 100 µM. For the same molecule, the TGI [23] was > 100 µM, the TGI [24] was > 100 µM and the TGI [55] was > 100 µM. The TGI [25] was > 100 µM, the TGI [26] was > 100 µM and the TGI [27] was > 100 µM. The TGI [28] was > 100 µM, the TGI [29] was > 100 µM and the TGI [30] was > 100 µM. The TGI [31] was > 100 µM, the TGI [32] was > 100 µM and the TGI [33] was > 100 µM. The TGI [34] was > 100 µM, the TGI [35] was > 100 µM and the TGI [56] was > 100 µM. The TGI [57] was > 100 µM, the TGI [36] was > 100 µM and the TGI [37] was > 100 µM. For the same molecule, the TGI [58] was > 100 µM, the TGI [38] was > 100 µM and the TGI [39] was > 100 µM. The TGI [40] was > 100 µM, the TGI [41] was > 100 µM and the TGI [42] was > 100 µM. For the same molecule, the TGI [43] was > 100 µM, the TGI [44] was > 100 µM and the TGI [45] was > 100 µM. The TGI [46] was > 100 µM, the TGI [47] was > 100 µM and the TGI [48] was > 100 µM.
For `CCCCCC[C@@H]1CCC2C(CO)[C@@H](O)CC[C@@H]2C1` (some centres undefined), the TGI [1] was 33.5 µM, the TGI [2] was 32.1 µM and the TGI [3] was 33.6 µM. It also gave a TGI [5] of 79.9 µM, a TGI [6] of 35.1 µM and a TGI [7] of 34.6 µM. For the same molecule, the TGI [8] was 37.5 µM, the TGI [9] was 39.4 µM and the TGI [51] was 32.7 µM. It also gave a TGI [10] of 37 µM, a TGI [11] of 32.1 µM and a TGI [52] of 33.4 µM. For the same molecule, the TGI [12] was 43 µM, the TGI [13] was 33 µM and the TGI [15] was 34.1 µM. The TGI [16] was 34.7 µM, the TGI [17] was > 100 µM and the TGI [18] was 36.2 µM. For the same molecule, the TGI [54] was 33.7 µM, the TGI [19] was 34.6 µM and the TGI [20] was 32.6 µM. For the same molecule, the TGI [21] was 31.3 µM, the TGI [22] was 35.3 µM and the TGI [23] was 36.1 µM. For the same molecule, the TGI [24] was 57 µM, the TGI [55] was 39.7 µM and the TGI [25] was 30.8 µM. For the same molecule, the TGI [26] was 30.4 µM, the TGI [27] was 31.5 µM and the TGI [28] was 29.3 µM. It also gave a TGI [29] of 30.6 µM, a TGI [30] of 33.9 µM and a TGI [31] of 33.4 µM. It also gave a TGI [59] of 63.2 µM, a TGI [34] of 32.6 µM and a TGI [35] of 30.3 µM. For the same molecule, the TGI [56] was 33.1 µM, the TGI [57] was 43.3 µM and the TGI [36] was 34.3 µM. For the same molecule, the TGI [37] was 34.2 µM, the TGI [38] was 30.6 µM and the TGI [39] was 35.8 µM. The TGI [40] was 37.6 µM, the TGI [41] was 41.3 µM and the TGI [42] was 53.6 µM. For the same molecule, the TGI [43] was 39.2 µM, the TGI [45] was 33.9 µM and the TGI [46] was 31 µM. The TGI [47] was 38.6 µM, the TGI [48] was 38.7 µM and the TGI [49] was 39.8 µM.
For `C/C(CCn1[nH]c(=O)ccc1=O)=N\NC(=O)C(=O)NN`, the TGI [1] was > 100 µM, the TGI [50] was > 100 µM and the TGI [2] was > 100 µM. The TGI [3] was > 100 µM, the TGI [4] was > 100 µM and the TGI [5] was > 100 µM. For the same molecule, the TGI [6] was > 100 µM, the TGI [7] was > 100 µM and the TGI [9] was > 100 µM. For the same molecule, the TGI [51] was > 100 µM, the TGI [10] was > 100 µM and the TGI [52] was > 100 µM. The TGI [53] was > 100 µM, the TGI [12] was > 100 µM and the TGI [13] was > 100 µM. For the same molecule, the TGI [15] was > 100 µM, the TGI [16] was > 100 µM and the TGI [17] was > 100 µM. For the same molecule, the TGI [18] was > 100 µM, the TGI [54] was > 100 µM and the TGI [19] was > 100 µM. The TGI [20] was > 100 µM, the TGI [21] was > 100 µM and the TGI [22] was > 100 µM. The TGI [23] was > 100 µM, the TGI [24] was > 100 µM and the TGI [55] was > 100 µM. The TGI [25] was > 100 µM, the TGI [26] was > 100 µM and the TGI [27] was > 100 µM. The TGI [28] was > 100 µM, the TGI [29] was > 100 µM and the TGI [30] was > 100 µM. The TGI [31] was > 100 µM, the TGI [59] was > 100 µM and the TGI [32] was > 100 µM. The TGI [33] was > 100 µM, the TGI [34] was > 100 µM and the TGI [35] was > 100 µM. For the same molecule, the TGI [56] was > 100 µM, the TGI [57] was > 100 µM and the TGI [36] was > 100 µM. For the same molecule, the TGI [37] was > 100 µM, the TGI [58] was > 100 µM and the TGI [38] was > 100 µM. The TGI [39] was > 100 µM, the TGI [43] was > 100 µM and the TGI [44] was > 100 µM. For the same molecule, the TGI [46] was > 100 µM, the TGI [47] was > 100 µM and the TGI [48] was > 100 µM. The TGI [49] was > 100 µM.
